Here are results for 41 compounds from patent US8076324B2, “Di(hetero)arylcyclohexane derivatives, their preparation, their use and pharmaceutical compositions comprising them” (Sanofi-Aventis, priority 2007, dated 2011).

Series [1] concerns the target T1, myocardial ATP-sensitive potassium channel (SUR2A/Kir6.2) (UniProt Q61743+Q63563).
T1 construct: expressed in transfected cells
Briefly: Rubidium efflux test on HEK293 cells transfected with SUR2A and Kir6.2 (myocardial action). The series is classed as cell-based, SUR2A from the rat, Kir6.2 from the mouse. The conditions noted are these: HEK293 cells transfected with SUR2A/Kir6.2; KATP channels opened by rilmakalim; 25 min incubation; read-out: IC50 values for the inhibition of the rubidium efflux. In short, it runs like this: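 HEK293 cells stably expressing mouse Kir6.2 and rat SUR2A loaded 3 h at 37 °C with 5.4 mM RbCl, then test compound added and channels opened with rilmakalim (2 μM, stock as added) for 25 min at 37 °C. Rb+ in supernatant and lysate by atomic absorption; efflux = supernatant/total, IC50 via Hill equation.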

Structures are written as SMILES. Counter-ions that a name gives are not always drawn. A value given as a limit tells only on which side of the number the result lay.

T1 sequence (Q63563 whole entry): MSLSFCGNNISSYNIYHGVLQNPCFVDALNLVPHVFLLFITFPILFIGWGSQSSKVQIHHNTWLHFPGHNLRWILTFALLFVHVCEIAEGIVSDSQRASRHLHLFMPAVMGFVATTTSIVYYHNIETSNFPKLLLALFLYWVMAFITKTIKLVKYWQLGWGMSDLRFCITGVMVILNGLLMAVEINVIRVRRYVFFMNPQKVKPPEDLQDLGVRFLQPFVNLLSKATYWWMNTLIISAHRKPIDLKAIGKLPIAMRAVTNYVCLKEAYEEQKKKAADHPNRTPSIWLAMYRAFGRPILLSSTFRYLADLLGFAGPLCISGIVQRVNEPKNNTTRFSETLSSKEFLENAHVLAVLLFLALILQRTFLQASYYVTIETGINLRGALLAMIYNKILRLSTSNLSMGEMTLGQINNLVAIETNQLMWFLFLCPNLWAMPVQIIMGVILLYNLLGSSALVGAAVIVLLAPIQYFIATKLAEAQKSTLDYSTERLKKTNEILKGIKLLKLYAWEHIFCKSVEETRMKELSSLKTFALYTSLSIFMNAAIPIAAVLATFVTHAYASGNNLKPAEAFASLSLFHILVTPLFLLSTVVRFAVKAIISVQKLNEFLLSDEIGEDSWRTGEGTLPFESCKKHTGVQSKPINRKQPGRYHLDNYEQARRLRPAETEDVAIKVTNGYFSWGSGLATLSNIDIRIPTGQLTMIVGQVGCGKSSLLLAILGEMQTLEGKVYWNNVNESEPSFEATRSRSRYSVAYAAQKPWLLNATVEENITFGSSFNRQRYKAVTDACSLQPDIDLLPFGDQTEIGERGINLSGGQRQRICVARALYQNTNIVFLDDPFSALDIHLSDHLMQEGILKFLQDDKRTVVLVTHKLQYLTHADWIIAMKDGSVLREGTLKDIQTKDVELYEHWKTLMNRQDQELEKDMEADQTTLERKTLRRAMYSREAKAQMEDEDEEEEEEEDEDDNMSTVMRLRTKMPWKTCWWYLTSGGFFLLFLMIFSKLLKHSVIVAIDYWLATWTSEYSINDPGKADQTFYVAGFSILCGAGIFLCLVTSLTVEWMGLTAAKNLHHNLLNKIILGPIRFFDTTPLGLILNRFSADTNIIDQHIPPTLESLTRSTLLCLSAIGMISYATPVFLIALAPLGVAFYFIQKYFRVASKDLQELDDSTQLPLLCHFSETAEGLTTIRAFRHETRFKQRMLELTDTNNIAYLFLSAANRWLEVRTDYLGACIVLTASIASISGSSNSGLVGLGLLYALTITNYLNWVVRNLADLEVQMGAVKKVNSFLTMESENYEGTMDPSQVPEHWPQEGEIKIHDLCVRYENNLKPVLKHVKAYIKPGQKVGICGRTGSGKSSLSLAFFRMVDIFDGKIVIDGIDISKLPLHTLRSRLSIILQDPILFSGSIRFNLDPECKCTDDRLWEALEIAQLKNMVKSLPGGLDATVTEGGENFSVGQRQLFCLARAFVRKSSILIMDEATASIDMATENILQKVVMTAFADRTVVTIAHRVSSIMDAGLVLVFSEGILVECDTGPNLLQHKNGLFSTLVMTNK
T1 sequence (Q61743 whole entry): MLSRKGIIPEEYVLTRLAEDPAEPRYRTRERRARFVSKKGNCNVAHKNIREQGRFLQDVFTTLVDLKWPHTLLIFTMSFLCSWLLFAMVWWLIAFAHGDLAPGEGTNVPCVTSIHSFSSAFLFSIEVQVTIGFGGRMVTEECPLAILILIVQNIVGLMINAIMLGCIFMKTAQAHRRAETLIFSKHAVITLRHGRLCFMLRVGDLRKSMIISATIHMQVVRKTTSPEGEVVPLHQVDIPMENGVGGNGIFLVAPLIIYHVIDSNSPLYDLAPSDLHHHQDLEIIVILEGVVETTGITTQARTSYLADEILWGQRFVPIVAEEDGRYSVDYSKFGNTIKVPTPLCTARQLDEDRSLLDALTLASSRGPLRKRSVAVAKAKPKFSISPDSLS

As usually defined, the melting point is the temperature of the solid-liquid transition. Broadly, the IC50 is the midpoint of a concentration-inhibition curve. Turning to `O=C(O)[C@]1(c2ccc(F)cc2)CC[C@](Oc2ccccn2)(c2ccc(F)cn2)CC1` [Example 339, Trans-1-(4-Fluorophenyl)-4-(5-fluoropyridin-2-yl)-4-(pyridin-2-yloxy)cyclohexanecarboxylic Acid], the melting point was above 300 °C. Moreover, the IC50 in series [1] is below 1000 nM.
Compound `CS(=O)(=O)c1cccc(-c2nc([C@]3(Oc4ccccc4)CC[C@@](C(=O)O)(c4ccccc4)CC3)n(CC3CC3)n2)c1` [Example 463, Trans-4-[2-Cyclopropylmethyl-5-(3-methanesulfonylphenyl)-2H-[1,2,4]triazol-3-yl]-4-phenoxy-1-phenylcyclohexanecarboxylic Acid] came in with a melting point of 198 °C. Besides, in series [1], the concentration for half-maximal inhibition (IC50) is below 1000 nM.
`Cc1nc([C@]2(OCC3CC3)CC[C@](C(=O)O)(c3ccccc3)CC2)n(CC2CC2)c1S(C)(=O)=O` (as salt: sulfonic acid salt) displayed a melting point of 206 °C.
In turn, `Cc1cnc([C@]2(OCC3CC3)CC[C@](C(=O)O)(c3ccc(F)cc3)CC2)n1CC1CC1` [Example 357, Cis-4-Cyclopropylmethoxy-4-(1-cyclopropylmethyl-5-methyl-1H-imidazol-2-yl)-1-(4-fluorophenyl)cyclohexanecarboxylic Acid] gave a melting point of 187 °C. In addition, the IC50 in series [1] was below 1000 nM.
As for `CS(=O)(=O)c1cccc2c1nc([C@]1(OCC3CC3)CC[C@](C(=O)O)(c3ccccc3)CC1)n2CC1CC1`, the melting point was 227 °C.
Compound `Cc1c(Cl)nc([C@]2(OCC3CC3)CC[C@](C(=O)O)(c3ccc(F)cc3)CC2)n1CC1CC1` [Example 360, Cis-4-(4-Chloro-1-cyclopropylmethyl-5-methyl-1H-imidazol-2-yl)-4-cyclopropylmethoxy-1-(4-fluorophenyl)cyclohexanecarboxylic Acid] yielded a melting point of 185 °C. Moreover, the IC50 in series [1] was below 1000 nM.
The compound `O=C(O)[C@]1(c2ccc(F)cc2)CC[C@](OCC2CC2)(c2cn(CC3CC3)c(-c3ccccc3)n2)CC1` [Example 432, Trans-4-Cyclopropylmethoxy-4-(1-cyclopropylmethyl-2-phenyl-1H-imidazol-4-yl)-1-(4-fluorophenyl)cyclohexanecarboxylic Acid] came in with a melting point of 209 °C. In addition, in series [1], the half-maximal inhibitory concentration (IC50) is below 1000 nM.
Regarding `Cc1nc([C@]2(OCC3CC3)CC[C@](C(=O)O)(c3ccccc3)CC2)n(CC2CC2)c1-c1ccc(F)cc1` [Example 427, Cis-4-Cyclopropylmethoxy-4-[1-cyclopropylmethyl-5-(4-fluorophenyl)-4-methyl-1H-imidazol-2-yl]-1-phenylcyclohexanecarboxylic Acid], the melting point came out at 199 °C. For the same compound, the half-maximal inhibitory concentration (IC50) in series [1] is below 1000 nM.
`Cc1c(C#N)nc([C@]2(OCC3CC3)CC[C@](C(=O)O)(c3ccc(F)cc3)CC2)n1CC1CC1` [Example 418, Cis-4-(4-Cyano-1-cyclopropylmethyl-5-methyl-1H-imidazol-2-yl)-4-cyclopropylmethoxy-1-(4-fluorophenyl)cyclohexanecarboxylic Acid] came in with a melting point of 245 °C. Also, the 50% inhibitory concentration (IC50) in series [1] is below 1000 nM.
Turning to `Cc1nc([C@]2(OCC3CC3)CC[C@](C(=O)O)(c3ccc(F)cc3)CC2)n(CC2CC2)c1Cl` [Example 363, Cis-4-(5-Chloro-1-cyclopropylmethyl-4-methyl-1H-imidazol-2-yl)-4-cyclopropylmethoxy-1-(4-fluorophenyl)cyclohexanecarboxylic Acid], the melting point stood at 184 °C. Moreover, the 50% inhibitory concentration (IC50) in series [1] was below 1000 nM.
Take `O=C(O)[C@]1(c2ccc(F)cc2)CC[C@](Oc2ncccn2)(c2ccc(F)cn2)CC1`: the melting point amounted to 159 °C.
Take `O=C(O)[C@]1(c2ccc(F)cc2)CC[C@](OCC2CC2)(c2ccc(F)cn2)CC1`: the melting point was 211 °C.
The compound `Cc1c(S(C)(=O)=O)nc([C@]2(OCC3CC3)CC[C@](C(=O)O)(c3ccccc3)CC2)n1CC1CC1` [Example 422, Cis-4-Cyclopropylmethoxy-4-(1-cyclopropylmethyl-5-methyl-4-methanesulfonyl-1H-imidazol-2-yl)-1-phenylcyclohexanecarboxylic Acid] gave a melting point of 242 °C. Further, the IC50 in series [1] was below 1000 nM.
The compound `CS(=O)(=O)n1c2ccccc2cc1[C@]1(OCC2CC2)CC[C@](C(=O)O)(c2ccccc2)CC1` [Example 440, Cis-4-Cyclopropylmethoxy-4-(1-methanesulfonyl-1H-indol-2-yl)-1-phenylcyclohexanecarboxylic Acid] showed a melting point of 152 °C. In series [1], the IC50 was below 1000 nM.
The compound `Cc1nc([C@]2(OCC3CC3)CC[C@](C(=O)O)(c3ccccc3)CC2)n(CC2CC2)c1C#N` [Example 419, Cis-4-(5-Cyano-1-cyclopropylmethyl-4-methyl-1H-imidazol-2-yl)-4-cyclopropylmethoxy-1-phenylcyclohexanecarboxylic Acid] registered a melting point of 228 °C. In series [1], the IC50 was below 1000 nM.
In the case of `O=C(O)[C@]1(c2ccccc2)CC[C@@](OCC2CC2)(c2ccc(F)cn2)CC1` [Example 267, Cis-4-Cyclopropylmethoxy-4-(5-fluoropyridin-2-yl)-1-phenylcyclohexanecarboxylic Acid], in series [1], the half-inhibitory concentration (IC50) was below 1000 nM.
The same measure, in the same setting: the figure for `O=C(O)[C@]1(c2ccccc2)CC[C@](OCC2CC2)(c2nc(-c3ccccc3)cs2)CC1` [Example 333-2, Trans-4-Cyclopropylmethoxy-1-phenyl-4-(4-phenylthiazol-2-yl)cyclohexanecarboxylic Acid] is below 1000 nM; for `COC1(c2ccc(C(F)(F)F)cc2)CCC(C(=O)O)(c2ccccc2)CC1` (stereo not shown) [Example 124] it is below 1000 nM; for `O=C(O)[C@]1(c2ccc(F)cc2)CC[C@@](OCC2CC2)(c2nccn2CC2CC2)CC1` [Example 364] it is below 1000 nM.
On the same count and under the same terms, the result for `COC1(c2ccc(F)cc2)CCC(C(=O)O)(c2ccccc2OC(F)(F)F)CC1` (stereo not shown) [Example 238] reads below 1000 nM.
As to `CCCOC1(c2cc(F)ccc2SC)CCC(C(=O)O)(c2ccc(F)cc2)CC1` (stereo not shown) [Example 248], the half-inhibitory concentration (IC50) in series [1] is below 1000 nM.
For the compound `CC(C)c1nc([C@]2(OCC3CC3)CC[C@](C(=O)O)(c3ccccc3)CC2)n(CC2CC2)c1Cl` [Example 394], the half-inhibitory concentration (IC50) in series [1] is below 1000 nM.
For the compound `CCOC1(c2ccccc2S(C)(=O)=O)CCC(C(=O)O)(c2ccccc2)CC1` (stereo not shown) [Example 173], the IC50 in series [1] was below 1000 nM.
Consider `Cc1nc([C@]2(OCC3CC3)CC[C@](C(=O)O)(c3ccc(OC(F)(F)F)cc3)CC2)n(CC2CC2)c1Cl` [Example 410], for which the IC50 in series [1] is below 1000 nM.
Take `Cc1c(Cl)nc([C@]2(OCC3CC3)CC[C@](C(=O)O)(c3ccccc3)CC2)n1CC1CC1` [Example 383]: in series [1], the half-maximal inhibitory concentration (IC50) was below 1000 nM.
With `Cc1c(F)cc([C@]2(OCC3CC3)CC[C@](C(=O)O)(c3ccccc3)CC2)cc1S(C)(=O)=O` [Example 482, Cis-4-Cyclopropylmethoxy-4-(3-fluoro-5-methanesulfonyl-4-methylphenyl)-1-phenylcyclohexanecarboxylic Acid], the IC50 in series [1] was below 1000 nM.
As for `CCCn1c(Cl)c(C)nc1[C@]1(OCCOC)CC[C@](C(=O)O)(c2ccccc2)CC1` [Example 390], in series [1], the IC50 was below 1000 nM.
`CS(=O)(=O)c1cc(F)cc([C@]2(OCC3CC3)CC[C@](C(=O)O)(c3ccc(F)cc3)CC2)c1` [Example 301, Cis-4-Cyclopropylmethoxy-4-(3-fluoro-5-methanesulfonylphenyl)-1-(4-fluorophenyl)cyclohexanecarboxylic Acid]: the IC50 in series [1] is below 1000 nM.
As for `CS(=O)(=O)c1cc(F)ccc1C1(OCC2CC2)CCC(C(=O)O)(c2ccc(F)cc2)CC1` (stereo not shown) [Example 253], in series [1], the IC50 is below 1000 nM.
For the compound `C=C(CO[C@]1(c2nccn2CC2CC2)CC[C@@](C(=O)O)(c2ccccc2)CC1)c1ccccc1` [Example 495, Cis-4-(1-Cyclopropylmethyl-1H-imidazol-2-yl)-1-phenyl-4-(2-phenylallyloxy)cyclohexanecarboxylic Acid], the half-inhibitory concentration (IC50) in series [1] is below 1000 nM.
For `CS(=O)(=O)c1ccc(F)cc1C1(OCC2CC2)CCC(C(=O)O)(c2ccc(F)cc2)CC1` (stereo not shown) [Example 258], in series [1], the IC50 is below 1000 nM.
Consider `CSc1ccc(F)cc1C1(OCC2CC2)CCC(C(=O)O)(c2ccc(F)cc2)CC1` (stereo not shown) [Example 247], for which, in series [1], the IC50 was below 1000 nM.
Regarding `CS(=O)(=O)c1ccc(-c2nc([C@]3(Oc4ccccc4)CC[C@@](C(=O)O)(c4ccccc4)CC3)n(CC3CC3)n2)cc1` [Example 467], the IC50 in series [1] is below 1000 nM.
The same measure, in the same setting: the figure for `O=C(O)C1(c2ccccc2)CCC(O)(c2c(F)cc(F)cc2F)CC1` (stereo not shown) [Example 98] is below 1000 nM; for `CC(C)S(=O)(=O)c1cc(F)cc([C@]2(OCC3CC3)CC[C@](C(=O)O)(c3ccc(F)cc3)CC2)c1` [Example 304-1, Cis-4-Cyclopropylmethoxy-1-(4-fluorophenyl)-4-[3-fluoro-5-(propane-2-sulfonyl)phenyl]cyclohexanecarboxylic Acid] it is below 1000 nM.
`Cc1nc([C@]2(OCC3CC3)CC[C@](C(=O)O)(c3ccccc3)CC2)n(C)c1Cl` [Example 391]: the IC50 in series [1] was below 1000 nM.
Consider `O=C(O)[C@]1(c2ccc(F)cc2)CC[C@@](OCC2CC2)(c2cn(CC3CC3)c(-c3ccccc3)n2)CC1`, for which the melting point came out at 198 °C.
In the case of `Cc1c(F)cc([C@]2(OCC3CC3)CC[C@](C(=O)O)(c3ccc(F)cc3)CC2)cc1S(=O)(=O)C(C)(C)C` [Example 304-2, Cis-4-Cyclopropylmethoxy-4-[3-fluoro-4-methyl-5-(2-methylpropane-2-sulfonyl)phenyl]-1-(4-fluorophenyl)cyclohexanecarboxylic Acid], in series [1], the IC50 was below 1000 nM.
For the compound `Cc1nc([C@]2(OCC3CC3)CC[C@](C(=O)O)(c3ccc(F)cc3)CC2)n(CC2CC2)c1C` [Example 365], the concentration for half-maximal inhibition (IC50) in series [1] is below 1000 nM.
On the same count and under the same terms, the result for `O=C(O)[C@]1(c2ccccc2)CC[C@](OCC2CC2)(c2nc3cc(Cl)ccc3n2CC2CC2)CC1` [Example 451] reads below 1000 nM; that for `COC1(c2ccc(Cl)cn2)CCC(C(=O)O)(c2ccccc2)CC1` (stereo not shown) [Example 137], below 1000 nM.
